The subject of assay [1] is Human immunodeficiency virus 1. The assay is described as follows: Antiviral activity against HIV1 LAI infected in human PBM cells after 5 days. The assay is classed as functional, organism-based. The conditions noted are these: Human immunodeficiency virus 1, LAI, PBMC, 120 h.
The subject of assay [2] is Vero. The assay is described as follows: Cytotoxicity against african green monkey Vero cells after 5 days. It counts as ADME, cell-based. The following applies: Chlorocebus sabaeus, 120 h.
Assay [3] has as its system PBMC. The assay is described as follows: Cytotoxicity against human PBMC after 5 days. The assay is classed as cell-based. The conditions noted are these: 120 h.
The test system of assay [4] is CCRF-CEM. The assay is described as follows: Cytotoxicity against human CEM cells after 5 days. It counts as ADME, cell-based. The following applies: 120 h.

For `C=CCNc1nc(N)nc2c1ncn2[C@H]1C[C@H](N=[N+]=[N-])[C@@H](CO)O1`, the EC50 – broadly, the concentration at which the effect is half-maximal – in assay [1] was found to be 0.5 µM. Moreover, it took 4.3 µM to reach the 90% level in assay [1] (EC90). Also, the half-inhibitory concentration (IC50) in assay [2], in assay [3] and in assay [4] was more than 100 µM throughout.

With `Cc1cn([C@H]2C[C@H](N=[N+]=[N-])[C@@H](CO)O2)c(=O)[nH]c1=O` [ZIDOVUDINE], the 90% effect level in assay [1] (EC90) was put at 0.02 µM. Also, the IC50 (commonly the midpoint of a concentration-inhibition curve) in assay [3] was more than 100 µM.

`C=CCN(C)c1nc(N)nc2c1ncn2[C@H]1C[C@H](N=[N+]=[N-])[C@@H](CO)O1` came in with an EC50 in assay [1] of 0.4 µM. In addition, the 90% effect level in assay [1] (EC90) was put at 1.5 µM. Also, the half-maximal inhibitory concentration (IC50) is 32 µM in assay [2], more than 100 µM in assay [3] and 27 µM in assay [4].

Regarding `COc1nc(F)nc2c1ncn2[C@H]1C[C@H](N=[N+]=[N-])[C@@H](CO)O1`, the EC50 in assay [1] is more than 100 µM. Besides, the EC90 (as a rule, the concentration at which the effect reaches the 90% level) in assay [1] is more than 100 µM. Also, the figures for the 50% inhibitory concentration (IC50) in assay [2], in assay [3] and in assay [4] were more than 100 µM, 9.4 µM and more than 100 µM, respectively.

`CC(C)(CO)Nc1nc(N)nc2c1ncn2[C@H]1C[C@H](N=[N+]=[N-])[C@@H](CO)O1` came in with an EC50 in assay [1] of 52.5 µM. The same compound registered a 90% effect concentration (EC90) in assay [1] of more than 10 µM. Also, the IC50 in assay [2], in assay [3] and in assay [4] was more than 100 µM each time.

Regarding `COc1nc(Cl)nc2c1ncn2[C@H]1C[C@H](N=[N+]=[N-])[C@@H](CO)O1`, it took 55.3 µM to reach a half-maximal effect in assay [1] (EC50). The EC90 in assay [1] is more than 100 µM. Besides, the IC50 in assay [2], in assay [3] and in assay [4] was more than 100 µM in each case.

`COc1nc(OC)c2ncn([C@H]3C[C@H](N=[N+]=[N-])[C@@H](CO)O3)c2n1` returned a concentration for a half-maximal effect (EC50) in assay [1] of 13.2 µM. Besides, the 90% effect concentration (EC90) in assay [1] was more than 100 µM. The IC50 in assay [2], in assay [3] and in assay [4] was more than 100 µM throughout.

Turning to `CN(C)c1nc(N)nc2c1ncn2[C@H]1C[C@H](N=[N+]=[N-])[C@@H](CO)O1`, the EC50 in assay [1] came out at 0.21 µM. Besides, the EC90 in assay [1] was determined as 1.1 µM. For the same compound, the IC50 in assay [2], in assay [3] and in assay [4] was more than 100 µM each time.

For the compound `CN(C)c1nc(Cl)nc2c1ncn2[C@H]1C[C@H](N=[N+]=[N-])[C@@H](CO)O1`, in assay [1], the EC50 was more than 100 µM. Also, in assay [1], the EC90 was more than 100 µM. In addition, the 50% inhibitory concentration (IC50) in assay [2], in assay [3] and in assay [4] was more than 100 µM in each case.

With `[N-]=[N+]=N[C@H]1C[C@H](n2ccc(=O)[nH]c2=O)O[C@@H]1CO` [NAVURIDINE], a half-maximal effect in assay [1] (EC50) was put at 0.16 µM. In assay [1], the 90% effect level (EC90) was put at 0.6 µM. Also, the IC50 in assay [2] was 26 µM; in assay [3] it was more than 100 µM; in assay [4], 69.3 µM.

`[N-]=[N+]=N[C@H]1C[C@H](n2cnc3c(N)nc(F)nc32)O[C@@H]1CO`: the EC50 in assay [1] was determined as 45.8 µM. The compound further had an EC90 in assay [1] of 94.7 µM. For the same compound, the IC50 in assay [2] came to 34.4 µM; in assay [3], 30.1 µM; in assay [4], 30.1 µM.

In assay [1], `CNc1nc(Cl)nc2c1ncn2[C@H]1C[C@H](N=[N+]=[N-])[C@@H](CO)O1` came in with an EC50 of more than 100 µM. In assay [1], this compound displayed an EC90 of more than 100 µM. The half-inhibitory concentration (IC50) in assay [2], in assay [3] and in assay [4] was more than 100 µM in each case.

In the case of `COc1nc(NC2CC2)c2ncn([C@H]3C[C@H](N=[N+]=[N-])[C@@H](CO)O3)c2n1`, the EC50 in assay [1] is 59.7 µM. This compound also gave a 90% effect concentration (EC90) in assay [1] of more than 100 µM. The IC50 in assay [2], in assay [3] and in assay [4] was more than 100 µM in each case.

On to `[N-]=[N+]=N[C@H]1C[C@H](n2cnc3c(NCCO)nc(N)nc32)O[C@@H]1CO`, for which a half-maximal response in assay [1] (EC50) required 2.1 µM. For the same compound, in assay [1], it took 16.2 µM to reach the 90% level (EC90). Besides, the IC50 in assay [2], in assay [3] and in assay [4] was more than 100 µM in each case.

In turn, `C#CCNc1nc(N)nc2c1ncn2[C@H]1C[C@H](N=[N+]=[N-])[C@@H](CO)O1` showed an EC50 in assay [1] of 1.7 µM. In assay [1], this compound came in with an EC90 of 8.5 µM. Further, the IC50 in assay [2], in assay [3] and in assay [4] was more than 100 µM throughout.

As to `CC(CO)Nc1nc(N)nc2c1ncn2[C@H]1C[C@H](N=[N+]=[N-])[C@@H](CO)O1` (some centres not stated), in assay [1], the EC50 came to 59.9 µM. The same compound registered a concentration for an effect of 90% (EC90) in assay [1] of more than 10 µM. Further, the IC50 in assay [2], in assay [3] and in assay [4] was more than 100 µM in each case.

For the compound `COc1nc(N)c2ncn([C@H]3C[C@H](N=[N+]=[N-])[C@@H](CO)O3)c2n1`, the EC50 in assay [1] amounted to 12.4 µM. In assay [1], this compound yielded an EC90 of 39.6 µM. Besides, the half-inhibitory concentration (IC50) in assay [2] is more than 100 µM; in assay [3], 35 µM; in assay [4], more than 100 µM.

For `[N-]=[N+]=N[C@H]1C[C@H](n2cnc3c(Cl)nc(F)nc32)O[C@@H]1CO`, the midpoint of the response in assay [1], the EC50, lay at 2.6 µM. This compound also showed a 90% effect concentration (EC90) in assay [1] of 10 µM. For the same compound, the concentration for half-maximal inhibition (IC50) came out at 21.8 µM in assay [2], 7.2 µM in assay [3] and 13.3 µM in assay [4].

In turn, `[N-]=[N+]=N[C@H]1C[C@H](n2cnc3c(N)nc(Cl)nc32)O[C@@H]1CO` showed an EC50 in assay [1] of 50.3 µM. Besides, in assay [1], the 90% effect concentration (EC90) was more than 100 µM. Also, the IC50 in assay [2] is more than 100 µM; in assay [3], 35.8 µM; in assay [4] it was more than 100 µM.

`[N-]=[N+]=N[C@H]1C[C@H](n2cnc3c(NC4CC4)nc(N)nc32)O[C@@H]1CO`: the EC50 in assay [1] was determined as 1.5 µM. Further, the 90% effect level in assay [1] (EC90) was put at 8.8 µM. In addition, the IC50 in assay [2], in assay [3] and in assay [4] was more than 100 µM in each case.

As to `[N-]=[N+]=N[C@H]1C[C@H](n2cnc3c(NC4CC4)nc(Cl)nc32)O[C@@H]1CO`, the response in assay [1] was half-maximal at 15 µM (EC50). Moreover, the EC90 in assay [1] stood at 51.5 µM. The concentration for half-maximal inhibition (IC50) is more than 100 µM in assay [2], 35.3 µM in assay [3] and more than 100 µM in assay [4].

`[N-]=[N+]=N[C@H]1C[C@H](n2cnc3c(NCCCCCO)nc(N)nc32)O[C@@H]1CO`: the EC50 in assay [1] is 86.5 µM. Moreover, in assay [1], the EC90 is more than 10 µM. In addition, the 50% inhibitory concentration (IC50) in assay [2], in assay [3] and in assay [4] was more than 100 µM in each case.

As for `C=CCNc1ncnc2c1ncn2[C@H]1C[C@H](N=[N+]=[N-])[C@@H](CO)O1`, the half-maximal effective concentration (EC50) in assay [1] is 0.3 µM. In assay [1], this compound returned a concentration for an effect of 90% (EC90) of 1.5 µM. The IC50 in assay [2] is more than 100 µM; in assay [3] it was 51.1 µM; in assay [4], more than 100 µM.

The values are drawn from ChEMBL document CHEMBL1153164, “Synthesis and evaluation of 3'-azido-2',3'-dideoxypurine nucleosides as inhibitors of human immunodeficiency virus” (Bioorg Med Chem Lett, 2010).
